IC50 data for 1 compound are collected here from patent US20040198981A1, “Tricyclic dihydroquinoline derivatives,method for preparing same and pharmaceutical compositions containing same” (priority 2001, published 2004).

The subject of this experiment is murine leukaemia, L1210. Put plainly: In vitro cytotoxicity, Microculture Tetrazolium Assay. The experiment is classed as cell-based. The following applies: Mus musculus, 48 h; L1210 cells, incubated for 2 days; read-out: IC50 (concentration of cytotoxic agent which inhibits proliferation of the treated cells by 50%). On the procedure: Three cell lines were used:
1 murine leukaemia, L1210,
1 human non-small-cell lung carcinoma, A549,
1 human colon carcinoma, HT29.
The cells are cultured in RPMI 1640 complete culture medium containing 10% foetal calf serum, 2 mM glutamine, 50 units/ml of penicillin, 50 μg/ml of streptomycin and 10 mM Hepes, pH=7.4. The cells are distributed on microplates and are exposed to the cytotoxic compounds. The cells are then incubated for 2 days (L1210) or 4 days (A549, HT29). The number of viable cells is then quantified by a colorimetric assay, the Microculture Tetrazolium Assay (Cancer Res. 1987, 47, 939-942).

Take `COc1cc(C2C3=C(COC3=S)N(Cc3ccccc3)c3cc4c(cc32)OCO4)cc(OC)c1OC` (stereo not shown) [Example 5, 4-Benzyl-6,7-methylenedioxy-9-(3,4,5-trimethoxyphenyl)-4,9-dihydrofuro[3,4-b]quinoline-1(3H)-thione]: the IC50 came out at 190 nM.
